In PMC11468675, “Near‐Infrared Bodipy‐Based Molecular Rotors for β‐Amyloid Imaging In Vivo” (Advanced Healthcare Materials, 2023):
Where “and” joins values, the source holds several entries; their conditions need not be identical. Equal entries are not always repeated.

What was measured:
Cytotoxicity MTT assay = assay type: cell-based; conditions: rat, PC12 cells, read-out: Cell viability
Experimental: The cells used for the cyt otox icit y t est were PC12, purchased from the Chinese National Infrastructure of Cell Line Resource. The experiment was divid ed into two parts, cell culture, and c yt otox icit y test. The PC12 cells were first cultured in cell culture fluid (high-glucose DMEM/heat-inactivated FBS/ heat-inactivated HS /penicillin and streptomycin = 100: 5: 5: 1, v/v) under 5% CO2 at 37 °C. After a period of incubation, PC12 were transferred into a sterile 96-well plate (1 × 10^4 cells per well) and cultured
for 24 h under 5% CO2 at 37 °C. After that, the cell culture fluid was removed, and gradient concentrations of probes (TP yrBDP, TPipBDP, THAIBDP), Aβ in the cell culture fluid (0, 2, 5, 10, 12, and 15 μM), or probes+ Aβ in th e cell culture fluid (5 μM probe + 10 μM Aβ) were added into the 96-well plate and incubat ed for another 24 h.
After that, the gradient concentration of probes or Aβ was removed and MTT (5× MTT was diluted into 1× MTT using dilution buffer, 50 μL per well) was added; t he mix ture was incubated at 37 °C for 4 h. The supernatant was removed, and form azan (150 μL per well) was added; the mix ture was placed on a shaker to be mix ed well. The cell viabilit y was determined by a microplate reader at 490 nm.

Hemolysis rate assay = assay type: cell-based; conditions: human, human red blood cells separated from whole blood, probe up to 100 µM, room temperature
Experimental: A cytotoxicity assay is one of the methods to evaluate the biocompatibility of probe molecules. Probes are generally considered to have low cytotoxicity when the cell viability is above 80%. Therefore, the cytotoxicity of TPyrBDP, TPipBDP, and THAIBDP was evaluated using PC12 cells using a standard MTT assay method. […] The hemolysis rate of probes is one of the common methods to evaluate the effect of probes on the blood of live animals. Therefore, the hemolysis rate of probes TPyrBDP, TPipBDP, and THAIBDP with blood samples was also evaluated. […] Therefore, the probes were suitable for subsequent cell experiments and animal experiments.
(§1) In Vitro Brain Slice Fluorescence Staining
The paraffin-embedded blank sections (5 μm) were immersed in x ylene for 5 min for deparaffinization and then washed with ethanol for 2 min and water for 5 min. The brain slices were incubated with 40 μL of 10 mg/ m L ThT for 5 min and washed with 50% ethanol solution for 3 min. Next, the brain sl ices were incubated with 40 μL of 1 μM probes for 20 min. After absorbin g th e residual liquid with dust-free paper, th e antifluorescence attenuating agent was added dropwise, and neutral gum was used for mounting. The slices were then placed under a laser confocal microscope (Lecia SP5) […]
Hemolysis Rate (HR) Assay
Human blood (1 m L, provided b y China-J apan Friendly Hospital, Beijing, China) was first diluted with 2 m L of PBS solution; the sample was centrifugated for 10 min (8000 rpm) and washed with PBS 5 times to separate red blood cells from serum. Finall y, the red blood cells were dispersed in 10 m L of P BS solution, from which 0.2 m L was taken, and 0.8 m L of different reagents (P BS, DI water, and 10, 20, 30, 50, and 100 μM of probes) was added. After mix ing evenl y, the samples were allowed to stand still for 3 h at room temperature and centrifuged (12,000 rpm, 5 min) to determine hemolysis circumstances. The supernatant (100 μL) was transferred to 96-well plates, and its ultraviolet absorption (Ex = 490 nm) was evaluated. […]

Aβ1–42 aggregates [1] = molecular target: T1, Aβ1–42 aggregates (Homo sapiens, UniProt P05067); experiment: Fluorescence enhancement assay with Aβ aggregates; assay type: binding; conditions: for Em, with Aβ / Em shift, with Aβ: 10% ethanol/PBS; for Em shift, with Aβ: + red shift, − blue shift; for Fluorescence enhancement (Fold = FL intensity probe+Aβ / probe): probe 1 μM in 10% EtOH/PBS, Aβ aggregates 33 µg mL−1
T1 construct: purchased Shanghai Macklin Biochemical Technology Co., Ltd
T1 sequence (P05067 672-713 limits assumed): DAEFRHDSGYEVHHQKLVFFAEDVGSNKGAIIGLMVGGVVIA
Excerpt: Thioflavin‐T (ThT) is the gold standard probe, commonly used as an in vitro fluorescence stain to determine the existence of Aβ aggregates. The ThT probe has a typical D–A structure, and its HOMO and LUMO electron clouds are redistributed from the donor (HOMO) to the acceptor (LUMO), which is typical for ICT probes.^[ [46] ^] In addition, the single bond between the benzene ring in the ThT probe and the benzothiazole salt, and the N,N‐dimethylamino group attached to the benzene ring can rotate freely, resulting in ThT becoming a molecular rotor. After ThT binds to Aβ, the rotation of the molecular rotor is restricted, and most of the electrons in the excited state return to the ground state by radiative transition, resulting in a substantial increase in fluorescence. […] The fluorescence response of TPyrBDP, TPipBDP, and THAIBDP with Aβ1–42 aggregates and BSA was evaluated in PBS (10% ethanol) solution. The formation of Aβ1–42 aggregates was characterized by TEM. The morphology of Aβ1–42 aggregates was filamentous (Figure S25b, Supporting Information), while the morphology of Aβ1–42 oligomers was a point‐like structure with a minimum diameter 44 nm (Figure S25a, Supporting Information). The images confirmed that Aβ1–42 aggregates were prepared successfully. As shown in Figure 2c‐f and Table S1, Supporting Information, a 42.5‐fold enhancement of fluorescence was observed when TPyrBDP interacted with the Aβ1–42 aggregates. […] The results confirmed the calculation results in Figure 1. […] In Figure 1b, the three probes are inserted into the hydrophobic pocket of Aβ1–42 aggregates when they interact with Aβ1–42 aggregates, resulting in changes of λ em. The fluorescence response of BSA with probes may cause non‐specific fluorescence enhancement, thus generating false signals. Therefore, we evaluated the interaction between the three probes and BSA. […] The selectivity of TPyrBDP, TPipBDP, and THAIBDP to different ions and amino acids was also evaluated. […] The ions and amino acids had no influence on the fluorescence enhancement of the probes. To quantify the binding affinity (K d) of the probes to Aβ1–42 aggregates, fluorescence‐based saturation binding assays were conducted using Aβ1–42 aggregates. The lower the K d values, the better the affinities.
To a solution of HFIP (600 μL) was added hum an Aβ42 (1 mg). After that, the solution was ultrasonicall y t reated for 2 min to destroy the oligomer probabl y formed, followed b y placing the mixture into an ice bath for 2 h. The solution was dispensed 20 μL per cent rifuge tube, dried by nitro gen, and stored at −80 °C.
To a centrifuge tube (containing 33 μg of Aβ42) was added 540 μL of PBS and 1% hydrox yl amine solution (60 μL); the solution was s haken on a shaker (300 rpm) at 37 °C for 72-96 h to form the Aβ42 aggregates. The Aβ42 aggregates were characterized by transmission electron microscop y (TEM).
Fluorescence Enhancement Assay
To a solution of probes were added pretreated Aβ42 aggregates (33 μg) or bovine serum albumin (BSA). The mix ture (the final concentration of probes was 1μM in 10% EtOH/PBS) was immediatel y transferred to a fluorescence spectrophot ometer (U-3900H, HITACHI, J apan) to record their spectrum (Ex slit = 10 nm, Em slit = 20 nm).
The probes alone (1μM in 10% EtOH/PBS), PBS, and BSA were also tested under the same conditions. The fluorescence enhancem ent was calculated usin g the followin g formula: fold = the fluorescence intensit y of the probe with Aβ42 or BSA/the fluorescence intensit y of probe alone. […]
(1 picture or pasted object on this page, not shown here)

Aβ1–42 aggregates [2] = molecular target: T1, Aβ1–42 aggregates; experiment: Fluorescence-based saturation binding assay; conditions: 10% EtOH/PBS, triplicate
[3] = molecular target: Aβ plaques in brain slices (Homo sapiens, UniProt P05067); experiment: In vitro brain slice fluorescence staining, co-staining with ThT; conditions: Tg mice slices, 13-month-old, female
Sequence of Aβ plaques in brain slices (P05067 672-711 limits assumed): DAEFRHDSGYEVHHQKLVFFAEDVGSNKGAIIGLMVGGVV
Experimental: To confirm whether the probes could bind Aβ deposits in brain slices, the fluorescence staining experiment were performed using slices of Tg mice (13‐month‐old, female). The staining results were imaged using CLSM. To ensure the accuracy of the staining results, commercial fluorescent dye ThT was used to co‐stain the same sections. The fluorescence signals of the slices were acquired at the same position using different channels of the CLSM. As shown in Figure 4 and Figure S27–S29, Supporting Information, Aβ plaques were highlighted by the probes with a high signal‐to‐background ratio. In contrast, there was no fluorescence signal for wild‐type slices (Figures S30–S32, Supporting Information). Since Aβ plaques are abundantly produced in the hippocampal and cortical regions of the brain, we imaged the corresponding regions of the slices, respectively. The staining results with ThT (Figure 4a,b,i,j,q,r) are shown in green, and the staining results of the probes TPyrBDP (Figure 4c,d), TPipBDP (Figure 4k,l), and THAIBDP (Figure 4s,t) are shown in red. All three probes could stain Aβ plaques both in the hippocampal and cortical regions successfully, and the corresponding merged image further confirmed the staining results. To quantify the colocalization effect, the Pearson correlation coefficients (R‐value) were calculated using ImageJ software. The closer the R‐value is to 1, the better the colocalization of the probe and ThT.
as §1
The paraffin-embedded blank sections (5 μm) were immersed in x ylene for 5 min for deparaffinization and then washed with ethanol for 2 min and water for 5 min. […]
Human blood (1 m L, provided b y China-J apan Friendly Hospital, Beijing, China) was first diluted with 2 m L of PBS solution; the sample was centrifugated for 10 min (8000 rpm) and washed with PBS 5 times to separate red blood cells from serum. […] The supernatant (100 μL) was transferred to 96-well plates, and its ultraviolet absorption (Ex = 490 nm) was evaluated. […]

Aβ1–42 aggregates [4] = molecular target: T1, Aβ1–42 aggregates; experiment: In vitro Aβ42 aggregate staining in solution (CLSM); assay type: binding; conditions: probe 5 µM, ThT 10 µM
Experimental: In Vitro Aβ42 staining in solution
Aβ42 aggregates were prepared according to the literature reported method 2. Aβ42
aggregate solution (20 μL) was added dropwise to a slide (CITOTEST), and then spread
until dry. ThT (10 μM, 20 μL) was added dropwise and spread until it was dry. Prob es
were added dropwise and spread until dr y. Anti-fluorescence quenchin g reagent (10-20
μL) was added dropwise and covered with a cover slide. The fluorescence signal was
captured b y C LSM. λex (ThT) = 488 nm, λem (ThT) = 508-550 nm; λex (probe) = 633 nm,

[5] = system: Aβ1–42 aggregates in PC12 cells; experiment: Cell imaging of Aβ1–42 aggregates, co-staining with ThT; assay type: cell-based
Excerpt: PC12 cells were used to study the affinity between TPipBDP and Aβ1–42 aggregates. Aβ1–42 aggregates have great neurotoxicity to interfere with the normal function of the brain. […] To study the imaging of TPipBDP with Aβ1–42 aggregates, the imaging effect of TPipBDP with Aβ1–42 aggregates was studied in PC12 cells. […] After adding Aβ1–42 aggregates to PC12 cells, some smaller‐than‐cell green fluorescence (ThT) and red fluorescence (TPipBDP) spots were observed. These smaller‐than‐cell bright fluorescence spots were Aβ1–42 aggregates. The Aβ1–42 aggregates can be clearly observed in the bright field image. […]
After that, the gradient concentration of probes or Aβ was removed and MTT (5× MTT was diluted into 1× MTT using dilution buffer, 50 μL per well) was added; t he mix ture was incubated at 37 °C for 4 h. […] The cell viabilit y was determined by a microplate reader at 490 nm.
To a centrifuge tub e (containing 1 mg of Aβ42) was added 180 μL of DMSO and 720 μL of PBS (pH = 7.2-7.4, Hyclone) and 1% hydrox ylamine solution (100 μL); the solution was shaken on a shaker (300 rpm) at 37 °C for 7 da ys to form the Aβ42 aggregates. Initial peptide concentrations were determined spectrophotometricall y at 280 nm, using an extinction coefficient of 1280 M-1cm-1. […]

Aβ aggregates = conditions: reported probe; ref (8); cited from earlier work

| Structure (SMILES) | viability at 24 h (Cytotoxicity MTT assay) [%] | hemolysis at 3 h (Hemolysis rate assay) [%] | Em, with Aβ (Aβ1–42 aggregates [1]) [nm] | Em shift, with Aβ (Aβ1–42 aggregates [1]) | λem redshift after interacting with Aβ1–42 aggregates (Aβ1–42 aggregates [1]; PBS (10% ethanol)) | Fluorescence enhancement (Fold = FL intensity probe+Aβ / probe) (Aβ1–42 aggregates [1]) | Kd (Aβ1–42 aggregates [2]) [nM] | Pearson correlation coefficient (R-value) with ThT, cortex region [3] | Pearson correlation coefficient (R-value) with ThT, hippocampus region [3] | Staining of Aβ1–42 aggregates in solution (Aβ1–42 aggregates [4]) | R-value (colocalization with ThT), probe + Aβ group ([5]; PC12 cells with Aβ1–42 aggregates (10 µM)) | R-value (colocalization with ThT), control group ([5]; PC12 cells without Aβ) | λem blueshift after interacting with Aβ1–42 aggregates (Aβ1–42 aggregates [1]; PBS (10% ethanol)) | Kd (Aβ aggregates) [nM] |
| --- | --- | --- | --- | --- | --- | --- | --- | --- | --- | --- | --- | --- | --- | --- |
| CC1=CC(C)=[N+]2C1=Cc1c(C)cc(/C=C/c3ccc(N4CCCC4)s3)n1[B-]2(F)F [TPyrBDP] | > 80 | < 5 | 693 | +13 nm | ≈ 13 nm | 42.48 fold and 42.5 fold | 54.2 ± 5.82 | 0.85 | 0.87 | stained Aβ1–42 aggregates successfully | – | – | – | – |
| CC1=CC(C)=[N+]2C1=Cc1c(C)cc(/C=C/c3ccc(N4CCCCC4)s3)n1[B-]2(F)F [TPipBDP] | > 80 | < 5 | 692 | -27 nm | – | 75.54 fold and 75.5 fold | 28.3 ± 5.94 | – | – | – | 0.84 | 0.65 | ≈ 27 nm | – |
| CC1=CC(C)=[N+]2C1=Cc1c(C)cc(/C=C/c3ccc(N4CCCCCC4)s3)n1[B-]2(F)F [THAIBDP] | > 80 | < 5 | 701 | -22 nm | – | 27.23 fold and 27.2 fold | 28.2 ± 3.07 | – | 0.72 | stained Aβ1–42 aggregates successfully | – | – | ≈ 22 nm | – |
| Cc1cc(/C=C/c2ccc(N(C)C)cc2)n2c1C=C1C=CC=[N+]1[B-]2(F)F [BAP-1] | – | – | – | – | – | – | – | – | – | – | – | – | – | 44.1 |
